# Experimental data published in patent US4219566A, “Phenylglyoxylic acids and derivatives thereof” (Pfizer Inc., priority 1977, dated 1980).
# What was measured:
# [1] = tested on: pyruvate oxidation by diaphragm tissue from fat-fed rats; assay: Pyruvate oxidation (14C-pyruvate into CO2) by diaphragm tissue from fat-fed rats in vitro; format: cell-based; settings: Rattus norvegicus, read-out: % Stimulation of pyruvate oxidation; for activation at 2000 µM: 2.0 mM compound in medium
# Procedure: (1) increase the oxidation of glucose and/or pyruvate by isolated rat muscle preparation in vitro;
# (1) (a) Diaphragm tissue is obtained from rats fed on a high fat diet similar to `Diet B` described by Zaragoza and Felber (Horm. Metab. Res. 1970, 2, 323). Pyruvate oxidation by such tissue is assessed by measurement of the rate of incorporation of carbon-14 carbon-14-labelled pyruvate into carbon dioxide in vitro, as described by Bringolf (Eur. J. Biochem. 1972, 26, 360). The rate of pyruvate oxidation is depressed by 50-75% compared with that by diaphragm tissue from rats fed on a normal diet. When the compounds of the formula (I) are added to the medium, they are found to stimulate pyruvate oxidation by diaphragm tissue from fat-fed rats in a dose dependent manner.
# The degree of stimulation by the compounds of the formula (I) at a concentration of 2.0 mM (unless otherwise stated) is shown in the following Table.
# [2] = tested on: pyruvate dehydrogenase (PDH); assay: Proportion of active pyruvate dehydrogenase (PDHa/PDHt) in hearts of fat-fed rats after dosing in vivo; design: species or system rat; settings: heart of fat-fed rats
# Procedure: (2) increase the proportion of the active form of the enzyme pyruvate dehydrogenase (PDH) in organs of animals (e.g. rats) in vivo; and
# The ability of compounds of formula (I) to increase the proportion of the active form of the pyruvate dehydrogenase enzyme may be measured by the following test.
# (2) Rats fed on a high fat diet as in test (1) (a), are treated either with placebo or with the compound of formula (I), by subcutaneous or intravenous injection or by oral administration, and at various times after treatment the rat hearts are removed and homogenized, under conditions which minimize changes in the proportion of the pyruvate dehydrogenase enzyme which is present in the active form, as described by Whitehouse and Randle (Biochem. J. 1973, 134, 651). The total amount of the enzyme present (PDHt) and the amount which is present in the active form (PDHa) are assessed by a method similar to that described by Taylor et al (J. Biol. Chem. 1973, 248, 73). The fat-feeding process is found to depress the ratio PDHa/PDHt from a normal value of about 0.7 to a value in the range from 0.05 to 0.2.
# [3] = tested on: fasted, closed-chest, anesthetized beagle dogs; assay: Myocardial blood flow and metabolism in electrically paced, anesthetized beagle dogs, with or without isoprenaline; format: in vivo; settings: 0.02 to 0.1 millimole/kg. intravenously; in the presence and absence of isoprenaline
# Excerpt: (3) reduce oxygen demand and affect the relative utilization of carbohydrate and lipid metabolites by the electrically-paced heart of an anesthetized dog in the presence or absence of an isoprenaline stimulus.
# The ability of compounds of formula (I) to reduce oxygen demand and affect the relative utilization of carbohydrate and lipid metabolites in the heart may be assessed by measuring the effect of the compounds on myocardial blood flow and metabolism in fasted, closed-chest, anesthetized beagle dogs, with cardiac catheterization to enable simultaneous sampling of coronary sinus and arterial blood to be carried out. Coronary sinus blood flow is measured by the hydrogen gas clearance technique described by Aukland et al (Circulation Res. 1964, 14, 164). The heart is paced electrically at 155 beats/min. and recordings of hemodynamic parameters (blood pressure, left ventricular pressure and the first derivative of the latter) are made continuously. Control measurements of coronary blood flow are made and samples of blood taken at 40 min. intervals, both in an untreated animal and in the same animal dosed with an infusion of isoprenaline ([…].), which both stimulates cardiac contraction and increases plasma free fatty acid levels. The compound of formula (I) is then administered intravenously and measurements are made and samples taken again, 40 minutes and 90 minutes later. The blood samples from the artery and coronary sinus are analyzed for oxyhemoglobin, pyruvate and free fatty acid (FFA) content, differences between those of the arterial and coronary sinus blood, when multiplied by coronary blood flow, being a measure of oxygen consumption, pyruvate uptake and FFA uptake by the myocardium respectively.
# [4] = tested on: rats in which diabetes has been induced by treatment with streptozotocin; assay: Blood glucose levels in streptozotocin-diabetic rats; format: in vivo; settings: averages for 8 animals
# Procedure: (4) decrease blood glucose levels in animals made diabetic by chemical lesion of the pancreas.
# The ability of compounds of formula (I) to decrease blood glucose levels may be assessed by measuring their effect on blood glucose levels in rats in which diabetes has been induced by treatment with streptozotocin (85 mg./kg.). Four days after such treatment, a number of rats are given 1 millimole/kg. of the compound by intraperitoneal injection and a similar number are given placebo. The doses are repeated after a further 24 hours and 48 hours. Blood samples are taken from a tail vein immediately before each dosage (which is 2 hours after removal of the animals from food) and 1, 2 and 3 hours after the third dose.
# [5] = dose 1.2 mM/kg subcutaneous, 1.5 hours, placebo ratio 0.11-0.24 in the same line
compound,measurement,setting,value
"Cc1ccc(C(=O)C(=O)O)cc1 [R=CH3, R1=H, R2=OH, p-methylphenylglyoxylic acid]",activation at 2000 µM,[1],71%
same,PDHa/PDHt ratio at 1.5 hours (Compound),[2]; [5],0.20
"O=C(O)C(=O)c1ccc(Cl)cc1 [R=Cl, R1=H, R2=OH, p-chlorophenylglyoxylic acid]",activation at 2000 µM,[1],71%
"O=C(O)C(=O)c1ccccc1 [R=H, R1=H, R2=OH, phenylglyoxylic acid]",activation at 1000 µM,[1]; at 1mM,25%
same,PDHa/PDHt ratio at 1.5 hours (Compound),[2]; [5],0.38
"CCOC(=O)C(=O)c1ccc(OCC)cc1 [R=OC2H5, R1=H, R2=OC2H5, ethyl p-ethoxyphenylglyoxylate]",PDHa/PDHt ratio at 1.5 hours (Compound),[2]; [5],0.35
"CCOc1ccc(C(=O)C(=O)O)cc1 [R=OC2H5, R1=H, R2=OH, p-ethoxyphenylglyoxylic acid]",activation at 2000 µM,[1],91%
same,PDHa/PDHt ratio at 1.5 hours (Compound),[2]; [5],0.56
"COc1ccc(C(=O)C(=O)O)cc1Cl [R=OCH3, R1=3-Cl, R2=OH, m-chloro-p-methoxyphenylglyoxylic acid]",activation at 2000 µM,[1],52%
same,PDHa/PDHt ratio at 1.5 hours (Compound),[2]; [5],0.35
"COc1ccc(C(=O)C(=O)O)cc1 [R=OCH3, R1=H, R2=OH, p-methoxyphenylglyoxylic acid]",activation at 2000 µM,[1],127%
same,PDHa/PDHt ratio at 1.5 hours (Compound),[2]; [5],0.49
"Cc1cc(C(=O)C(=O)O)ccc1O [R=OH, R1=3-CH3, R2=OH, p-hydroxy-m-methylphenylglyoxylic acid]",activation at 2000 µM,[1],21%
same,PDHa/PDHt ratio at 1.5 hours (Compound),[2]; [5],0.31
"O=C(O)C(=O)c1ccc(O)c(I)c1 [R=OH, R1=3-I, R2=OH, p-hydroxy-m-iodophenylglyoxylic acid]",activation at 2000 µM,[1],55%
"CCOC(=O)C(=O)c1ccc(O)cc1 [R=OH, R1=H, R2=OC2H5, ethyl p-hydroxyphenylglyoxylate]",activation at 2000 µM,[1],83%
"CC(C)Sc1ccc(C(=O)C(=O)O)cc1 [R=S . isopropyl, R1=H, R2=OH, p-(isopropylthio)phenylglyoxylic acid]",activation at 2000 µM,[1],200%
"CCCCSc1ccc(C(=O)C(=O)O)cc1 [R=S . n-butyl, R1=H, R2=OH, p-(n-butylthio)phenylglyoxylic acid]",activation at 2000 µM,[1],113%
"CCSc1ccc(C(=O)C(=O)O)cc1 [R=SC2H5, R1=H, R2=OH, p-(ethylthio)phenylglyoxylic acid]",activation at 2000 µM,[1],158%
same,PDHa/PDHt ratio at 1.5 hours (Compound),[2]; [5],0.73
"CC(C)(C)CSc1ccc(C(=O)C(=O)O)cc1 [R=SCH2 . t-butyl, R1=H, R2=OH]",activation at 2000 µM,[1],67%
"CSc1ccc(C(=O)C(=O)O)cc1 [R=SCH3, R1=H, R2=OH, p-(methylthio)phenylglyoxylic acid]",activation at 2000 µM,[1],123%
same,PDHa/PDHt ratio at 1.5 hours (Compound),"[2]; first of two doses shown only in drawing 5, subcutaneous, placebo 0.20",0.47
same,PDHa/PDHt ratio at 1.5 hours (Compound),"[2]; second of two doses shown only in drawing 5, subcutaneous, placebo 0.12",0.24
O=C(O)C(=O)c1ccc(O)cc1 [p-hydroxyphenylglyoxylic acid],activation at 2000 µM,[1],104%
same,PDHa/PDHt ratio at 1.5 hours (Compound),[2]; [5],0.28
same,duration of increased myocardial pyruvate uptake after dosing,[3],at least 90 minutes
same,myocardial blood flow,[3],increased
same,myocardial oxygen consumption,[3],decreased
same,myocardial pyruvate uptake,[3],increases myocardial pyruvate uptake
same,blood glucose level,"[4]; 3 hours after the third dose, 1 millimole/kg. intraperitoneal, placebo 369±9",344±9 mg./100 ml.
same,blood glucose level,"[4]; after 2 days of treatment, immediately before third dose, 1 millimole/kg. intraperitoneal daily, baseline 376±6, placebo 383±10",358±9 mg./100 ml.
